These results are taken from patent publication US8282938B2 (priority 2008, dated 2012).

The test system of assay [1] is HLA-A*2402-restricted cytotoxic T lymphocytes. Further details: species or system transgenic mice expressing the HLA-A*2402 molecule (A24Tg). Particulars: mouse, in vivo.
The subject of assay [2] is HLA-A*0201-restricted cytotoxic T lymphocytes. Further details: species or system mice expressing the HLA-A*0201 molecule (HHD mice). Particulars: mouse, in vivo.

For the sequence CFNPMIVEL [PA_8], in assay [1], the CTL activity entry is “low activity” and the Specific killing is recorded as 10%. The like results for EWFRNVLSI [PB1_331] were, in that order, “low activity” and 7%.

Consider GMFNMLSTV [PB1_410], for which, in assay [2], the CTL activity entry is “high CTL activity” and the Specific killing is 87%. As to IFLARSALI [NP_257], in assay [1], the CTL activity result is reported as “low activity” and the Specific killing worked out at 16%. The like results for KTTPRPLRL [PA_262] were, in that order, “high CTL activity” and 58%. The like results for LWILDRLFF [M2_40] were, in that order, “low activity” and 10%. MYQKCCTLF [PB1_688]: in assay [1], the CTL activity entry is reported as “high CTL activity” and the Specific killing was determined as 89%. The corresponding values for RYTKTTYWW [PB1_430] are “high CTL activity” and 96%.

SFSFGGFTF [PB2_322]: in assay [1], the CTL activity entry is on record as “high CTL activity” and the Specific killing worked out at 38%.

SLLTEVETL [M2_2]: in assay [1], the CTL activity entry is “low activity”. On to SYINRTGTF [PB1_482], for which, in assay [1], the CTL activity entry is “high CTL activity” and the Specific killing was 56%. The corresponding values for SYLIRALTL [PB1_216] are “high CTL activity” and 22%.

For the sequence TYFEKVERL [PB2_117], in assay [1], the CTL activity result is recorded as “low activity” and the Specific killing came out at 13%. The like results for TYQWIIRNW [PB2_549] were, in that order, “high CTL activity” and 96%.

For the sequence YYLEKANKI [PA_130], in assay [1], the CTL activity entry was “high CTL activity” and the Specific killing is recorded as 95%.
